Data as given in publication PMC12116762, “Topobexin targets the Topoisomerase II ATPase domain for beta isoform-selective inhibition and anthracycline cardioprotection” (Nature Communications, 2025).
“And” between values parts separate entries of the source, which are not always exact repeats. Identical values can stand only once.

Tests used:
[1] = target: T1, recombinant human TOP2A (Homo sapiens, UniProt P11388); assay: In vitro ATPase activity of TOP2A (coupled assay); format: biochemical
T1 construct: Using recombinant full-length human TOP2A and TOP2B enzymes; YFP (N, cleaved yes); made in house; host or cells: HEK293F
Outline: (§1)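 Recombinant human TOP2A or TOP2B, prediluted to 500 nM in HEPES pH 7.5/500 mM NaCl storage buffer, in an NADH-coupled ATP hydrolysis assay, ATP-initiated at 30 °C. NADH fluorescence decay (ex 340, em 480) read every 30 s for 120 cycles. Slopes background-corrected, normalized to untreated controls, and fitted for IC50.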

[2] = target: T2, recombinant human TOP2B (Homo sapiens, UniProt Q02880); assay: In vitro ATPase activity of TOP2B (coupled assay); format: biochemical
T2 construct: Using recombinant full-length human TOP2A and TOP2B enzymes; YFP (N, cleaved yes); made in house; host or cells: HEK293F
Outline: as §1

[3] = system: neonatal rat ventricular cardiomyocytes (NVCM); assay: Protection against DAU-induced cytotoxicity (LDH release) in NVCM; format: cell-based; design: key to Suppl.Fig.3 DAU-induced cytotoxicity (LDH release) in NVCM, mean of independent replicates / LDH release (DAU-induced cytotoxicity), mean of independent replicates: % of total LDH activity; conditions: for LDH release: independent replicates
Outline: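 Primary neonatal Wistar rat cardiomyocytes in serum- and pyruvate-free DMEM/F12 were pretreated with compound 3 h, then co-incubated 3 h with DAU (1.2 µM), or without DAU for inherent toxicity, then given a 48 h drug-free follow-up. Medium LDH activity (NAD+ reduction at 340 nm) expressed as % of total LDH.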

T1 sequence (P11388 whole entry): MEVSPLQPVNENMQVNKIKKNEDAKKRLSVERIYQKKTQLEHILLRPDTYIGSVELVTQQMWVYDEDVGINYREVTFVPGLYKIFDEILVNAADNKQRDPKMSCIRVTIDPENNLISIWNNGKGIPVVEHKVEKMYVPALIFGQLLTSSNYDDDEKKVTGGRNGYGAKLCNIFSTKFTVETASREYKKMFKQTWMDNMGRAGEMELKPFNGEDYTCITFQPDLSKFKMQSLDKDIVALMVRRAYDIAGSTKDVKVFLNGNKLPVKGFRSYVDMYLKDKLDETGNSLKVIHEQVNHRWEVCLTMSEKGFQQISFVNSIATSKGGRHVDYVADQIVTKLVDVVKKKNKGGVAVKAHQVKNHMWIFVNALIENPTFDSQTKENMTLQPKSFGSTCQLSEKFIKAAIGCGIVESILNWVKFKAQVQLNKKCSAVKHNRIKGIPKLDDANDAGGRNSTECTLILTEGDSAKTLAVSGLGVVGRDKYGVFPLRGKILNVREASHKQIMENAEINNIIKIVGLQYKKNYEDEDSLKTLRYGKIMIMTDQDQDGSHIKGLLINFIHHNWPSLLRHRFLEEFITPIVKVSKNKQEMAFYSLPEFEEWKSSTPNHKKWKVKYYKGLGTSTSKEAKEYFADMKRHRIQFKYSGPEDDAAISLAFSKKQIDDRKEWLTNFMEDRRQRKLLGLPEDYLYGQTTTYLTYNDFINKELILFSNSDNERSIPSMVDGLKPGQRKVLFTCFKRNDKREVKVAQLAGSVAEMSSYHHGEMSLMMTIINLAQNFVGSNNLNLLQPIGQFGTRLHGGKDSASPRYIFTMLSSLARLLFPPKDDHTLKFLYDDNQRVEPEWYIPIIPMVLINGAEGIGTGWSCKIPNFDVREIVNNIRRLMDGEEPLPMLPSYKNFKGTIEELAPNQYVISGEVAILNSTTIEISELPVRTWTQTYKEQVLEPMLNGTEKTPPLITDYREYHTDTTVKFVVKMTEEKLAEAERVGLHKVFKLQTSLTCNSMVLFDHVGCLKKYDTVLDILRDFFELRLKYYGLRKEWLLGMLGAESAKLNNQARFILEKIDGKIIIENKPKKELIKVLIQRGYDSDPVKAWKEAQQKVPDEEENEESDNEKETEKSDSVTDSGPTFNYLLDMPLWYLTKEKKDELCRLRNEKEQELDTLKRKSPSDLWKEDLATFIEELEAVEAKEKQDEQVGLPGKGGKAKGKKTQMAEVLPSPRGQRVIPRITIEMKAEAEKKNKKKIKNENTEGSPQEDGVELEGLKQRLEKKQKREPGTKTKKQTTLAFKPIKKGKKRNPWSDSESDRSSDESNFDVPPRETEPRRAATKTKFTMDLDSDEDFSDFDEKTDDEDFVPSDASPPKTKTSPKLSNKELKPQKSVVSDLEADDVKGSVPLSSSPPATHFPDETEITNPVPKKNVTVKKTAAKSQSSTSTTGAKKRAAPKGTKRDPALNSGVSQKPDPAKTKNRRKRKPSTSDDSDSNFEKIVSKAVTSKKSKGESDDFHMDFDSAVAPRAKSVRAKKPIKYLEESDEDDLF
T2 sequence (Q02880 1-1621 isoform Q02880-2): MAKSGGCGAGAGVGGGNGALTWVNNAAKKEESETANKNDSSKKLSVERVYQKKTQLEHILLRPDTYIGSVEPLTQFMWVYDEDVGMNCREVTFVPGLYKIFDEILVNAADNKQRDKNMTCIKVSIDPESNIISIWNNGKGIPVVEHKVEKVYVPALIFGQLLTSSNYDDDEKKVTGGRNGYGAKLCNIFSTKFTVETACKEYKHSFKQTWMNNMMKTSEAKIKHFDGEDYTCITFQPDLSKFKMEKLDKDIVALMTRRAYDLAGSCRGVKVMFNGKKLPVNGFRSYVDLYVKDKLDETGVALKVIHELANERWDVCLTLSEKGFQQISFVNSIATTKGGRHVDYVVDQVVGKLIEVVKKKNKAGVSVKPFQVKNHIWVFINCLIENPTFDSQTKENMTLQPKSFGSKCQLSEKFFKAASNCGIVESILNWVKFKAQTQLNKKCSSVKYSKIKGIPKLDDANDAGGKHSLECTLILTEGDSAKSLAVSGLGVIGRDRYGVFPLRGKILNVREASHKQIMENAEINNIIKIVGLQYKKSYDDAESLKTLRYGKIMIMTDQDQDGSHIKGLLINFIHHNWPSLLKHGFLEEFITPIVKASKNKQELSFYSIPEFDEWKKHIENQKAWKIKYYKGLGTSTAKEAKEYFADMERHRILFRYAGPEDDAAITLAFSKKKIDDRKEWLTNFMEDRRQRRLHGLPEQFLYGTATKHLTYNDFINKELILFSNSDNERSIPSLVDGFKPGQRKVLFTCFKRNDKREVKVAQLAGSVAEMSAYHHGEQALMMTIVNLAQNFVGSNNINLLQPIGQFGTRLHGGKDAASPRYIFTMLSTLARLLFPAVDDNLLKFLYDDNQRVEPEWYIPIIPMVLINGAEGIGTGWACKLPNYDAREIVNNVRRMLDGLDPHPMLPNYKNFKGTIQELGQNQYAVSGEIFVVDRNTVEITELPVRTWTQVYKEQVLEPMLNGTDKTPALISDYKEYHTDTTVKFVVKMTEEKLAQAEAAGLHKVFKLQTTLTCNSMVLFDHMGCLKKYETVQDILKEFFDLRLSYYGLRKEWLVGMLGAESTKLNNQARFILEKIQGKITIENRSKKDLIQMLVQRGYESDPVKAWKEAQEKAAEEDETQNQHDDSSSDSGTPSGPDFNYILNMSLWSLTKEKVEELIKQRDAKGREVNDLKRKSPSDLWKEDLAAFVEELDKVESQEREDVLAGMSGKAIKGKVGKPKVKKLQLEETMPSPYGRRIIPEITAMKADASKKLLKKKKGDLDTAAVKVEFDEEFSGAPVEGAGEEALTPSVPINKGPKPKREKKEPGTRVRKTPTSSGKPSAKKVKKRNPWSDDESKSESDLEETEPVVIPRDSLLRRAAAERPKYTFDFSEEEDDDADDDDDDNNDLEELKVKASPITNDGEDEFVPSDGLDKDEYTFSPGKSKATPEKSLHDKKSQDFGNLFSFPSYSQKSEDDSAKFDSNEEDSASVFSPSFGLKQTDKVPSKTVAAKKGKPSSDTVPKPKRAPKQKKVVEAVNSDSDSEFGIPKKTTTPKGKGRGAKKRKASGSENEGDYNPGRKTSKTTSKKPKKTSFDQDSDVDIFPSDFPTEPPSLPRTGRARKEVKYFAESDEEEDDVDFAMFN

CCCc1cc(=O)oc2c(C(=O)N3CCCc4ccccc43)c(OCCO)ccc12 [5c]
remaining activity at 0.03125 µM ([1]; 0.03125 μM, independent replicates, read-out: Normalized % TOP2A activity, ATPase): 97.4%
remaining activity at 0.0625 µM ([1]; 0.0625 μM, independent replicates, read-out: Normalized % TOP2A activity, ATPase): 86.8%
remaining activity at 0.125 µM ([1]; 0.125 μM, independent replicates, read-out: Normalized % TOP2A activity, ATPase): 79.9%
remaining activity at 0.25 µM ([1]; 0.25 μM, independent replicates, read-out: Normalized % TOP2A activity, ATPase): 62.7%
remaining activity at 0.5 µM ([1]; 0.5 μM, independent replicates, read-out: Normalized % TOP2A activity, ATPase): 45.9%
remaining activity at 1 µM ([1]; 1 μM, independent replicates, read-out: Normalized % TOP2A activity, ATPase): 25.8%
remaining activity at 2 µM ([1]; 2 μM, independent replicates, read-out: Normalized % TOP2A activity, ATPase): 11.6%
remaining activity at 4 µM ([1]; 4 μM, independent replicates, read-out: Normalized % TOP2A activity, ATPase): 6.58%
remaining activity at 8 µM ([1]; 8 μM, independent replicates, read-out: Normalized % TOP2A activity, ATPase): 3.17%
IC50 ([1]; n=3): 1540 nM
remaining activity at 0.03125 µM ([2]; 0.03125 μM, independent replicates, read-out: Normalized % TOP2B activity, ATPase): 99.9%
remaining activity at 0.0625 µM ([2]; 0.0625 μM, independent replicates, read-out: Normalized % TOP2B activity, ATPase): 98.5%
remaining activity at 0.125 µM ([2]; 0.125 μM, independent replicates, read-out: Normalized % TOP2B activity, ATPase): 96.8%
remaining activity at 0.25 µM ([2]; 0.25 μM, independent replicates, read-out: Normalized % TOP2B activity, ATPase): 89.9%
remaining activity at 0.5 µM ([2]; 0.5 μM, independent replicates, read-out: Normalized % TOP2B activity, ATPase): 77%
remaining activity at 1 µM ([2]; 1 μM, independent replicates, read-out: Normalized % TOP2B activity, ATPase): 61.7%
remaining activity at 2 µM ([2]; 2 μM, independent replicates, read-out: Normalized % TOP2B activity, ATPase): 39.1%
remaining activity at 4 µM ([2]; 4 μM, independent replicates, read-out: Normalized % TOP2B activity, ATPase): 16.4%
remaining activity at 8 µM ([2]; 8 μM, independent replicates, read-out: Normalized % TOP2B activity, ATPase): 6.04%
SRbeta (SRTOP2B), TOP2 ATPase activity ([2]; TOP2A IC50 divided by TOP2B IC50): 3.8
IC50 ([2]; n=3): 400 nM and 410 nM
concentration providing significant cardioprotection ([3]; NVCM, DAU 1.2 µM): ≥ 0.1 µM
minimal effective concentration ([3]; Rattus norvegicus, Cardiomyocyte, NVCM, protection against DAU 1.2 µM, n=4, read-out: LEC = lowest effective concentration): 0.1 µM
LDH release, mean ([3]; compound 0.01 µM + DAU 1.2 µM): 43.3429 % of total LDH
Suppl.Fig.3 DAU-induced cytotoxicity (LDH release) in NVCM, mean of independent replicates ([3]; compound 0.01 µM + DAU 1.2 µM): 43.3429
LDH release ([3]; compound 0.01 µM + DAU 1.2 µM): 38.8043 % of total LDH and 44.6863 % of total LDH and 52.1182 % of total LDH and 37.7626 % of total LDH
LDH release, mean ([3]; compound 0.1 µM + DAU 1.2 µM): 37.9008 % of total LDH
Suppl.Fig.3 DAU-induced cytotoxicity (LDH release) in NVCM, mean of independent replicates ([3]; compound 0.1 µM + DAU 1.2 µM): 37.9008
LDH release ([3]; compound 0.1 µM + DAU 1.2 µM): 31.4509 % of total LDH and 46.2465 % of total LDH and 39.969 % of total LDH and 33.9368 % of total LDH
LDH release, mean ([3]; compound 1 µM + DAU 1.2 µM): 32.4872 % of total LDH
Suppl.Fig.3 DAU-induced cytotoxicity (LDH release) in NVCM, mean of independent replicates ([3]; compound 1 µM + DAU 1.2 µM): 32.4872
LDH release ([3]; compound 1 µM + DAU 1.2 µM): 27.3874 % of total LDH and 32.0086 % of total LDH and 42.6349 % of total LDH and 27.9179 % of total LDH
LDH release, mean ([3]; compound 10 µM + DAU 1.2 µM): 26.8851 % of total LDH
Suppl.Fig.3 DAU-induced cytotoxicity (LDH release) in NVCM, mean of independent replicates ([3]; compound 10 µM + DAU 1.2 µM): 26.8851
LDH release ([3]; compound 10 µM + DAU 1.2 µM): 22.9974 % of total LDH and 24.3605 % of total LDH and 29.85 % of total LDH and 30.3325 % of total LDH
LDH release, mean ([3]; compound 30 µM + DAU 1.2 µM): 27.5762 % of total LDH
Suppl.Fig.3 DAU-induced cytotoxicity (LDH release) in NVCM, mean of independent replicates ([3]; compound 30 µM + DAU 1.2 µM): 27.5762
LDH release ([3]; compound 30 µM + DAU 1.2 µM): 24.4062 % of total LDH and 28.0233 % of total LDH and 28.184 % of total LDH and 29.6914 % of total LDH
LDH release, mean ([3]; compound 100 µM + DAU 1.2 µM): 31.1384 % of total LDH
Suppl.Fig.3 DAU-induced cytotoxicity (LDH release) in NVCM, mean of independent replicates ([3]; compound 100 µM + DAU 1.2 µM): 31.1384
LDH release ([3]; compound 100 µM + DAU 1.2 µM): 22.9096 % of total LDH and 39.1124 % of total LDH and 31.4385 % of total LDH and 31.093 % of total LDH
